In brackets after ≈: the same amount, converted by molar mass.
What was measured:
[1] = target: T1, 5-hydroxytryptamine receptor 2A (Homo sapiens, UniProt P28223); experiment: Inverse agonist activity at 5-HT2A receptor (unknown origin) expressed in mouse NIH3T3 cells using o-nitrophenyl-D-galacto pyranoside incubated for 120 hrs; assay type: functional, cell-based
[2] = target: T1, 5-hydroxytryptamine receptor 2A; experiment: Antagonist activity at 5-HT2A receptor (unknown origin) expressed in CHO-K1 cells assessed as reduction in intracellular Ca2+ mobilization incubated for 15 mins by FLIPR assay; assay type: functional, cell-based
[3] = Plasma protein binding in monkey at 10 uM; assay type: ADME, cell-free, Macaca mulatta; conditions: rhesus monkey, read-out: PPB (converted)
[4] = Plasma protein binding in human at 10 uM; assay type: ADME, cell-free; conditions: read-out: PPB (converted)
[5] = target: Cytochrome P450 2D6 (Homo sapiens, UniProt P10635); experiment: Inhibition of CYP2D6 (unknown origin); assay type: ADME
Chain of Cytochrome P450 2D6 (P10635 whole entry): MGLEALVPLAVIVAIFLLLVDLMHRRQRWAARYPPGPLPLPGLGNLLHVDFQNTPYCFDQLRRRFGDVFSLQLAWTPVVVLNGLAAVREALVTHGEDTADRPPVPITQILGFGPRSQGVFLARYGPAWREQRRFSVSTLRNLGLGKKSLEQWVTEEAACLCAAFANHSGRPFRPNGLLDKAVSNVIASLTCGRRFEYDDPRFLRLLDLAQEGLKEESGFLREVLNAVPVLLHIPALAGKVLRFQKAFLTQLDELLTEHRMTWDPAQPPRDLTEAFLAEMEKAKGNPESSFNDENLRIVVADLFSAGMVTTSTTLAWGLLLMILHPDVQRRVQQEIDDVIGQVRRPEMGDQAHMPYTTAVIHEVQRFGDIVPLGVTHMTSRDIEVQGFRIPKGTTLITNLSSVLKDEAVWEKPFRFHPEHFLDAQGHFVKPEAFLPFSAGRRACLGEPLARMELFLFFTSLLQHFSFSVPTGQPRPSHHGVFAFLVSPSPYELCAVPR

[6] = Metabolic stability in Sprague-Dawley rat liver microsomes assessed as compound remaining at 100 uM […] followed by NADPH addition by LC/MS analysis; assay type: ADME, Microsome; conditions: read-out: Stability
[7] = Dissociation constant, pKa of the compound; assay type: physicochemical
[8] = Plasma protein binding in rat at 10 uM; assay type: ADME, cell-free; conditions: read-out: PPB (converted)
[9] = AUC(0 to 24 hrs) in mouse at 100 mg/kg by UHPLC/FT-ICR-MS analysis; assay type: ADME, organism-based; parameters: time < 24 hr, dose 100 mg/kg; conditions: in vivo
[10] = AUC(0 to 24 hrs) in rat at 100 mg/kg by UHPLC/FT-ICR-MS analysis; assay type: ADME, organism-based; parameters: time < 24 hr, dose 100 mg/kg; conditions: in vivo
[11] = AUC(0 to 24 hrs) in monkey at 100 mg/kg by UHPLC/FT-ICR-MS analysis; assay type: ADME, organism-based, Macaca mulatta; parameters: time < 24 hr, dose 100 mg/kg; conditions: rhesus monkey, in vivo
[12] = AUC(0 to 24 hrs) in human at 80 mg/kg/day by UHPLC/FT-ICR-MS analysis; assay type: ADME, organism-based; parameters: time < 24 hr, dose 80 mg/kg/day; conditions: in vivo
[13] = Drug metabolism in mouse assessed as AUC(0 to 24 hrs) for AC-279 metabolite at 100 mg/kg by UHPLC/FT-ICR-MS analysis; assay type: ADME, organism-based; parameters: time < 24 hr, dose 100 mg/kg; conditions: in vivo
[14] = Drug metabolism in rat assessed as AUC(0 to 24 hrs) for AC-279 metabolite at 100 mg/kg by UHPLC/FT-ICR-MS analysis; assay type: ADME, organism-based; parameters: time < 24 hr, dose 100 mg/kg; conditions: in vivo
[15] = Drug metabolism in monkey assessed as AUC(0 to 24 hrs) for AC-279 metabolite at 100 mg/kg by UHPLC/FT-ICR-MS analysis; assay type: ADME, organism-based, Macaca mulatta; parameters: time < 24 hr, dose 100 mg/kg; conditions: rhesus monkey, in vivo
[16] = Drug metabolism in human assessed as AUC(0 to 24 hrs) for AC-279 metabolite at 80 mg/kg/day by UHPLC/FT-ICR-MS analysis; assay type: ADME, organism-based; parameters: time < 24 hr, dose 80 mg/kg/day; conditions: in vivo
[17] = Drug metabolism in rat assessed as AUC(0 to 24 hrs) for AC- 423 metabolite at 100 mg/kg by UHPLC/FT-ICR-MS analysis; assay type: ADME, organism-based; parameters: time < 24 hr, dose 100 mg/kg; conditions: in vivo
[18] = Drug metabolism in monkey assessed as AUC(0 to 24 hrs) for AC- 423 metabolite at 100 mg/kg by UHPLC/FT-ICR-MS analysis; assay type: ADME, organism-based, Macaca mulatta; parameters: time < 24 hr, dose 100 mg/kg; conditions: rhesus monkey, in vivo
[19] = Drug metabolism in human assessed as AUC(0 to 24 hrs) for AC- 423 metabolite at 80 mg/kg/day by UHPLC/FT-ICR-MS analysis; assay type: ADME, organism-based; parameters: time < 24 hr, dose 80 mg/kg/day; conditions: in vivo
[20] = Drug metabolism in mouse assessed as AUC(0 to 24 hrs) for AC- 527 metabolite at 100 mg/kg by UHPLC/FT-ICR-MS analysis; assay type: ADME, organism-based; parameters: time < 24 hr, dose 100 mg/kg; conditions: in vivo
[21] = Drug metabolism in rat assessed as AUC(0 to 24 hrs) for AC- 527 metabolite at 100 mg/kg by UHPLC/FT-ICR-MS analysis; assay type: ADME, organism-based; parameters: time < 24 hr, dose 100 mg/kg; conditions: in vivo
[22] = Drug metabolism in monkey assessed as AUC(0 to 24 hrs) for AC- 527 metabolite at 100 mg/kg by UHPLC/FT-ICR-MS analysis; assay type: ADME, organism-based, Macaca mulatta; parameters: time < 24 hr, dose 100 mg/kg; conditions: rhesus monkey, in vivo
[23] = Drug metabolism in human assessed as AUC(0 to 24 hrs) for AC- 527 metabolite at 80 mg/kg/day by UHPLC/FT-ICR-MS analysis; assay type: ADME, organism-based; parameters: time < 24 hr, dose 80 mg/kg/day; conditions: in vivo
[24] = Metabolic stability in Sprague-Dawley rat liver microsomes assessed as half life at 100 uM preincubated for 10 mins followed by NADPH addition by LC/MS analysis; assay type: ADME, Microsome
[25] = Metabolic stability in human liver microsomes assessed as half life at 100 uM preincubated for 10 mins followed by NADPH addition by LC/MS analysis; assay type: ADME, Microsome
[26] = Metabolic stability in Sprague-Dawley rat liver microsomes assessed as intrinsic clearance at 100 uM preincubated for 10 mins followed by NADPH addition by LC/MS analysis; assay type: ADME, Microsome; conditions: read-out: CLH
[27] = Metabolic stability in human liver microsomes assessed as intrinsic clearance at 100 uM preincubated for 10 mins followed by NADPH addition by LC/MS analysis; assay type: ADME, Microsome; conditions: read-out: CLH
[28] = Metabolic stability in human liver microsomes assessed as compound remaining at 100 uM […] followed by NADPH addition by LC/MS analysis; assay type: ADME, Microsome; conditions: read-out: Stability
[29] = Lipophilicity, logD of the compound at pH 7.4; assay type: physicochemical; conditions: buffer
[30] = Aqueous solubility of compound at pH 7.4; assay type: physicochemical
[31] = Metabolic stability in dog liver microsomes assessed as compound remaining at 100 uM […] followed by NADPH addition by LC/MS analysis; assay type: ADME, Canis lupus familiaris, Microsome; conditions: read-out: Stability
[32] = target: T2, Cytochrome P450 1A2 (Homo sapiens, UniProt P05177); experiment: Inhibition of CYP1A2 (unknown origin); assay type: ADME
T2 sequence (P05177 whole entry): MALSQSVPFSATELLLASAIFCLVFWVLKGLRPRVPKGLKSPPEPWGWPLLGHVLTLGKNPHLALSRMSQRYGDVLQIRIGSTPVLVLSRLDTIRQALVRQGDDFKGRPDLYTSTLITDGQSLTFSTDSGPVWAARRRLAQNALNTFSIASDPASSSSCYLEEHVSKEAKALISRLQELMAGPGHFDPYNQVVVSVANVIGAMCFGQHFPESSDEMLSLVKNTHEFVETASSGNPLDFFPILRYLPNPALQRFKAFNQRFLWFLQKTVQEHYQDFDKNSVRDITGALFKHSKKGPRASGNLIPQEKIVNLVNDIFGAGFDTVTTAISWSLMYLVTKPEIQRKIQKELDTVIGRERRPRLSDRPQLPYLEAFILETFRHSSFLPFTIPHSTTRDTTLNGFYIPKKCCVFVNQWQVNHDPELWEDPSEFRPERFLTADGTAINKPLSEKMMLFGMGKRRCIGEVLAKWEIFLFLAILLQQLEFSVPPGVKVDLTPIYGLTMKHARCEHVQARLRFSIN

[33] = target: Cytochrome P450 2C9 (Homo sapiens, UniProt P11712); experiment: Inhibition of CYP2C9 (unknown origin); assay type: ADME
Chain of Cytochrome P450 2C9 (P11712 whole entry): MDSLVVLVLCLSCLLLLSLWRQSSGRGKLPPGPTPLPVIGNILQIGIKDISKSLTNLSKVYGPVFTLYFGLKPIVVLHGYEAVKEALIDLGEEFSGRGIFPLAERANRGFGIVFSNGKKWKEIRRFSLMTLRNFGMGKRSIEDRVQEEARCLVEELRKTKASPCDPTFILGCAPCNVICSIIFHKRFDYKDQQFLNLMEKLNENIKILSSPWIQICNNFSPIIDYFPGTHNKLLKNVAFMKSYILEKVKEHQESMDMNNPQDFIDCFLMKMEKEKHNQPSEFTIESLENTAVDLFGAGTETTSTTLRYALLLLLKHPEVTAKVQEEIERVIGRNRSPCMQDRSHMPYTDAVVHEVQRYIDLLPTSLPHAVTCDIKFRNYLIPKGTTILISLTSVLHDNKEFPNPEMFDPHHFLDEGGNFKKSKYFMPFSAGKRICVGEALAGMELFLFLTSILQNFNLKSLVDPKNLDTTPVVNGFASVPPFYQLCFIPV

[34] = target: Cytochrome P450 2C19 (Homo sapiens, UniProt P33261); experiment: Inhibition of CYP2C19 (unknown origin); assay type: ADME
Chain of Cytochrome P450 2C19 (P33261 whole entry): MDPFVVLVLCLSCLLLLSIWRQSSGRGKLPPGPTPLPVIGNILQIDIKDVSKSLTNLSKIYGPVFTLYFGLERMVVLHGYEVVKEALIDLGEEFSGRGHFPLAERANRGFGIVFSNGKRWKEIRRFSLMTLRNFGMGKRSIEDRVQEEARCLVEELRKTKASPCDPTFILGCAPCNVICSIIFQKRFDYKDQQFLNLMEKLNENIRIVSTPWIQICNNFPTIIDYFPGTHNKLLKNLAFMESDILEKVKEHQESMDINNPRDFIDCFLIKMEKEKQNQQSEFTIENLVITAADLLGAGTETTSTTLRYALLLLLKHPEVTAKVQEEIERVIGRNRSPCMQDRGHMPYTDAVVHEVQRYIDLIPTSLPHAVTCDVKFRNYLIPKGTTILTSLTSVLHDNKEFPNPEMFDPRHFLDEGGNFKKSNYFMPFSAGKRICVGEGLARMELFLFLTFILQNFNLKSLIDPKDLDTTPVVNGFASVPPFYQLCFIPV

[35] = Drug distribution in Sprague-Dawley rat brain at 6 micromol/kg administered via gavage measured after 0.5 hr by LC-MS/MS analysis; assay type: ADME, tissue-based; conditions: in vivo, po, dose 6 µmol/kg
[36] = Drug distribution in Sprague-Dawley rat brain at 6 micromol/kg administered via gavage measured after 2 hrs by LC-MS/MS analysis; assay type: ADME, tissue-based; conditions: in vivo, po, dose 6 µmol/kg
[37] = Drug distribution in Sprague-Dawley rat brain at 6 micromol/kg administered via gavage measured after 6 hrs by LC-MS/MS analysis; assay type: ADME, tissue-based; conditions: in vivo, po, dose 6 µmol/kg

T1 sequence (P28223 whole entry): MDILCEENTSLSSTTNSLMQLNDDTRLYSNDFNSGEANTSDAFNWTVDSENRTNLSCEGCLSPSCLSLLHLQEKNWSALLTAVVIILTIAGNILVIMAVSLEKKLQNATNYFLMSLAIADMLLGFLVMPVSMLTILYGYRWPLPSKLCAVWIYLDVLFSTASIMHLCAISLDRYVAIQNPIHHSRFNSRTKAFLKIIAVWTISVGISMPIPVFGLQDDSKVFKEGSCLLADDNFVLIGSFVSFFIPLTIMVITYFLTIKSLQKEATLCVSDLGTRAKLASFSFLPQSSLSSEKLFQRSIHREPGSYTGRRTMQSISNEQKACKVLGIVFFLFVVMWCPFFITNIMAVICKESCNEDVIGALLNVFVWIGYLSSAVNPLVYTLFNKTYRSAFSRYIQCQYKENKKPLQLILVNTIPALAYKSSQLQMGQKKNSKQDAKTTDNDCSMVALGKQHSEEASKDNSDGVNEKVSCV

Which IC50 [1] does the source give for `CC(C)c1cc2cc(CNC(=O)N(Cc3ccc(F)cn3)C3CCN(C)CC3)ccc2o1` here?
The IC50 was 64.9 nM.

What does the source list for `CN1CCC(N(Cc2ccc(F)cn2)C(=O)NCc2ccc(OCC(F)(F)F)c(Br)c2)CC1`?
IC50 [2]: 12 nM; IC50 [1]: 8.85 nM

With `CN1CCC(N(Cc2ccc(F)cn2)C(=O)NCc2ccc(OCC(F)(F)F)c(C(F)(F)F)c2)CC1` as the compound, how does the IC50 [2] read?
The IC50 was 27.3 nM.

And the IC50 [1]?
Its IC50 is 30.5 nM.

Which IC50 [2] does the source give for `CC(C)COc1ccc(CNC(=O)N(Cc2cn[nH]c2)C2CCN(C)CC2)cc1` here?
The IC50 was > 500 nM.

What about the IC50 [1] of the same compound?
The IC50 was > 500 nM.

Which fraction unbound at 10 µM [3] does the source give for `CC(C)COc1ccc(CNC(=O)N(Cc2ccc(F)cc2)C2CCN(C)CC2)cc1` [PIMAVANSERIN] here?
The fraction unbound at 10 µM was 0.053.

What about the fraction unbound at 10 µM [4] of the same compound?
Its fraction unbound at 10 µM is 0.045.

What about the IC50 [5] of the same compound?
The IC50 was > 100000 nM.

And the remaining at 100 µM [6]?
Its remaining at 100 µM is 68.5%.

And the pKa [7]?
The pKa was 8.44.

What about the fraction unbound at 10 µM [8] of the same compound?
Its fraction unbound at 10 µM is 0.037.

And the AUC(0-t) at 24 h [9]?
Its AUC(0-t) at 24 h is 4460 ng·h/mL.

And the AUC(0-t) at 24 h [10]?
The AUC(0-t) at 24 h was 3250 ng·h/mL.

And the AUC(0-t) at 24 h [11]?
Its AUC(0-t) at 24 h is 7730 ng·h/mL.

What about the AUC at 24 h [12] of the same compound?
The AUC at 24 h was 836 ng·h/mL.

What about the AUC [13] of the same compound?
Its AUC is 8210 ng·h/mL.

And the AUC [14]?
Its AUC is 4320 ng·h/mL.

And the AUC [15]?
The AUC was 4800 ng·h/mL.

And the AUC [16]?
The AUC was 527 ng·h/mL.

What about the AUC [17] of the same compound?
Its AUC is 18577 ng·h/mL.

What about the AUC [18] of the same compound?
The AUC was 2411 ng·h/mL.

And the AUC [19]?
Its AUC is 112 ng·h/mL.

What about the AUC [20] of the same compound?
Its AUC is 388 ng·h/mL.

And the AUC [21]?
The AUC was 1976 ng·h/mL.

And the AUC [22]?
The AUC was 1289 ng·h/mL.

What about the AUC [23] of the same compound?
The AUC was 236 ng·h/mL.

What about the half-life at 100 µM [24] of the same compound?
Its half-life at 100 µM is 1.78 h.

And the half-life at 100 µM [25]?
Its half-life at 100 µM is 1.96 h.

What about the CLint scaled at 100 µM [26] of the same compound?
Its CLint scaled at 100 µM is 23.2 mL/min/kg.

What about the CLint scaled at 100 µM [27] of the same compound?
Its CLint scaled at 100 µM is 11 mL/min/kg.

And the remaining at 100 µM [28]?
Its remaining at 100 µM is 70.7%.

And the logD [29]?
Its logD is 2.78.

What about the solubility [30] of the same compound?
The solubility was 21 µg/mL (≈ 49.1 µM).

What about the remaining at 100 µM [31] of the same compound?
The remaining at 100 µM was 29.7%.

What about the IC50 [32] of the same compound?
The IC50 was 52000 nM.

What about the IC50 [33] of the same compound?
Its IC50 is > 100000 nM.

What about the IC50 [34] of the same compound?
Its IC50 is 49800 nM.

What about the Ct [35] of the same compound?
Its Ct is 136 nmol/kg.

What about the Ct [36] of the same compound?
The Ct was 171 nmol/kg.

What about the Ct [37] of the same compound?
Its Ct is 36 nmol/kg.

With `CN1CCC(N(Cc2ccc(F)cn2)C(=O)NCc2ccc(OC(F)(F)C(F)(F)F)cc2)CC1` as the compound, how does the IC50 [2] read?
Its IC50 is 33.4 nM.

What does the source list for `CC(C)COc1ccc(CNC(=O)N(Cc2ccc(F)cc2)C2CCCC(N(C)C)C2)cc1` (stereo not given)?
IC50 [2]: > 500 nM; IC50 [1]: > 500 nM

Source: ChEMBL document CHEMBL5131502, “Improving the treatment of Parkinson's disease: Structure-based development of novel 5-HT2A receptor antagonists/inverse agonists” (Eur J Med Chem, 2022)
